Measurements taken from patent US20230093975A1, “I[…] FOR TREATING CENTRAL NERVOUS SYSTEM DISORDERS” (priority 2021, published 2023).
Read-outs that look alike come from different tables or passages of the source.

Key:
[1] = Oral rivastigmine pharmacokinetics and estimated CSF uptake (Exelon label); format: in vivo; conditions: plasma volume 2750 mL, CSF volume 150 mL
Method: Drug coating and formulation development. The absolute bioavailability of oral rivastigmine is approximately 40%, and the AUC1-12 h cerebral spinal fluid (CSF)/plasma ratio is about 40% (Novartis Exelon® Capsules and Oral Solution Prescribing Information). An estimated 0.87% of the rivastigmine oral dose is absorbed and distributed into the CSF. Thus, the daily CSF uptake of this drug is estimated to be between 26-105 μg. As a starting point for the formulation development, we will first target to formulate a matrix loaded with rivastigmine which will be released over 30 days in a near linear manner. Bilateral administration of the rivastigmine matrix would result in approximately 21-107 μg rivastigmine delivered to CSF/day, assuming a CSF bioavailability between 10-50%.
For oral administration, delivery, an absolute bioavailability of Rivastigmine is about 40% and a mean AUC (area under the curve) 1-12 hr CSF/Plasma is about 40% (Exelon Label). The daily doses delivered to CSF are 26 μg/day, 52 μg/day, 79 μg/day, and 105 μg/day for the oral doses, equating to 1.5 mg BID, 3 mg BID, 4.5 mg BID, and 6 mg BID, respectively. For this estimation, a plasma volume of 2750 mL and a CSF volume of 150 mL are used.

[2] = oral rivastigmine, cited from earlier work

## CCN(C)C(=O)Oc1cccc([C@H](C)N(C)C)c1 [Rivastigmine]
[1]
  share of oral dose absorbed and distributed into the CSF: 0.87%
[2]
  AUC1-12 h CSF/plasma ratio: about 40%
[2]; listed as rivastigmine
  AUC1-12 h CSF/plasma ratio: approximately 40%
